IC50 and half-life data for 11 molecules are collected here from ChEMBL document CHEMBL4706604, “Design, synthesis and biological evaluation of indanone-chalcone hybrids as potent and selective hCES2A inhibitors” (Eur J Med Chem, 2021).

In one data set the target is T1, Cocaine esterase (Homo sapiens, UniProt O00748).
T1 sequence (O00748 whole entry): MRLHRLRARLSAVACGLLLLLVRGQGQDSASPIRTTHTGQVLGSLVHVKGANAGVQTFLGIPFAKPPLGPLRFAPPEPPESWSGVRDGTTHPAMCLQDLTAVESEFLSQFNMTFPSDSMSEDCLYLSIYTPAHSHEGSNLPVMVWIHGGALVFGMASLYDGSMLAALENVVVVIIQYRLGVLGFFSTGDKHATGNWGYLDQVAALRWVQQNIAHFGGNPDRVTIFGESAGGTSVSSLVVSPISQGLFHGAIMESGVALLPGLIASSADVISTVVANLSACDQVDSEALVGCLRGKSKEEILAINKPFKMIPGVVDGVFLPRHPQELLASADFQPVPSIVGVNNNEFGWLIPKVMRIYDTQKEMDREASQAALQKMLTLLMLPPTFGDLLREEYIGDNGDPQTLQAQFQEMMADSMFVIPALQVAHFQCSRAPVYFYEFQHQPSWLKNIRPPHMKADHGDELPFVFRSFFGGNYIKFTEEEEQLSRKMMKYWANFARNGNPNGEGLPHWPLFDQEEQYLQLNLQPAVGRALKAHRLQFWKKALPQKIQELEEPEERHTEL
The data set is described as follows: Inhibition of hCES2A in human liver microsome assessed as reduction in fluorescein diacetate hydrolysis preincubated for 10 mins followed by substrate addition measured after 20 mins by fluorescence analysis. It is filed as microsomes.

The target in a further data set is T2, Liver carboxylesterase 1 (Homo sapiens, UniProt P23141).
T2 sequence (P23141 whole entry): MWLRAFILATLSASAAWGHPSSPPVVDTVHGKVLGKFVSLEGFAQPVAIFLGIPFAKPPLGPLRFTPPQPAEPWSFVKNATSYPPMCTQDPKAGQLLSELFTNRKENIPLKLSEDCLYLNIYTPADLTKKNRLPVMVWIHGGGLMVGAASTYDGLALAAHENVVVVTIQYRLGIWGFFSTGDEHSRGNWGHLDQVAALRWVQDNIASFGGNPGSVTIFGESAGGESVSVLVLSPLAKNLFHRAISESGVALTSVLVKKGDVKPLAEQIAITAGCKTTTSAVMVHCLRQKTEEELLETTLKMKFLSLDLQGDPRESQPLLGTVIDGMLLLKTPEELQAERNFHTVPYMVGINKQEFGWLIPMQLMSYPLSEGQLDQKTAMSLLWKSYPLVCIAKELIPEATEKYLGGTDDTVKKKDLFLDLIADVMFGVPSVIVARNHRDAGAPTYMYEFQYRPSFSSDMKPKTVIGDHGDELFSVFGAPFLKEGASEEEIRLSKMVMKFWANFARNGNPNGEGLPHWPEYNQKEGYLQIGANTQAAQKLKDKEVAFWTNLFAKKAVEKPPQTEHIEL
The data set is described as follows: Inhibition of hCES1A in human liver microsome assessed as reduction in D-Iuciferin methyl ester hydrolysis preincubated for 10 mins followed by substrate addition measured after 10 mins by luminescence analysis. Format: microsomes. (In general: Microsomes from liver hold many membrane-bound enzymes, among them those of drug oxidation.)

A further data set addresses Cholinesterase (Homo sapiens, UniProt P06276). Kind of data set: Inhibition of BChE in human plasma assessed as reduction in butyrylthiocholineiodide hydrolysis preincubated for 3 mins followed by substrate addition. It is filed as cell-free.
A short description of data set [1]: Metabolic stability at phase 1 in human liver microsomes assessed as half life at 10 uM by LC-UV analysis.
A short description of data set [2]: Metabolic stability at phase 2 in human liver microsomes assessed as half life at 10 uM by LC-UV analysis.

Sequence of Cholinesterase (P06276 whole entry): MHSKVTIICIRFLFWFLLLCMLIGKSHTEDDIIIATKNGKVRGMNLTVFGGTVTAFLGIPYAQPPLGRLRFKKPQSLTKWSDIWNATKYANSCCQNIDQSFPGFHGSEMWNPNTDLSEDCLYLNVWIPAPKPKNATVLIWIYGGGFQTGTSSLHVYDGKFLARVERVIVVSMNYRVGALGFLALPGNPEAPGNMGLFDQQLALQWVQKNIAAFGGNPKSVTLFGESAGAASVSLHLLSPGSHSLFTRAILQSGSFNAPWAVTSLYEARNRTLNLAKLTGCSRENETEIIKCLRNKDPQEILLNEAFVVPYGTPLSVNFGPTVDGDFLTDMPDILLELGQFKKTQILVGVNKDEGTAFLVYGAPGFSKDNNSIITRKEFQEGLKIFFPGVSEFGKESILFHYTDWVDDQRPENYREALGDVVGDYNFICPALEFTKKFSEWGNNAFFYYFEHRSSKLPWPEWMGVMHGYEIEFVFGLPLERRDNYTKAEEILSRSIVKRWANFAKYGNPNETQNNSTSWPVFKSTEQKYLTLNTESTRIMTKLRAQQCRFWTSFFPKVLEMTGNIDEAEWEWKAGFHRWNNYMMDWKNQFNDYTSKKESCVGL

In the case of `O=C1/C(=C/c2ccc(O)cc2)Cc2ccc(O)cc21`, the IC50 on Cocaine esterase was 5940 nM.

On to `COc1cc(/C=C2\Cc3ccc(OC(C)C)cc3C2=O)ccc1O`, for which the IC50 on Cocaine esterase is 2860 nM.

As to `COc1cc(/C=C2\Cc3ccc(O)cc3C2=O)ccc1O`, the IC50 on Cocaine esterase was 1090 nM.

Consider `COc1ccc(/C=C2\Cc3ccc(O)cc3C2=O)cc1`, for which the IC50 at Cocaine esterase was 56000 nM.

On to `COc1cc(/C=C2\Cc3ccc(N)cc3C2=O)ccc1O`, for which, at Cocaine esterase, the IC50 was found to be 1480 nM.

In the case of `CCCOc1ccc2c(c1)C(=O)/C(=C/c1ccc(O)c(OC)c1)C2`, on Cocaine esterase, the IC50 came out at 1620 nM.

As to `COc1ccc2c(c1)C(=O)/C(=C/c1ccc(O)c(OC)c1)C2`, the IC50 on Cocaine esterase came to 2910 nM.

For the molecule `COc1ccc(/C=C2\Cc3ccc(O)cc3C2=O)c(OC)c1OC`, at Cocaine esterase, the IC50 came out at 5230 nM.

Regarding `COc1cc(/C=C2\Cc3ccccc3C2=O)ccc1O`, at Cocaine esterase, the IC50 was 1310 nM.

Regarding `O=C1/C(=C/c2ccc(O)c(O)c2)Cc2ccc(O)cc21`, on Cocaine esterase, the IC50 came to 2810 nM.

Turning to `COc1cc(/C=C2\Cc3ccc(N4CCCC4)cc3C2=O)ccc1O`, the IC50 at Liver carboxylesterase 1 and on Cholinesterase was more than 100 µM in each case. Further, the values for the half-life at 10 µM in data set [1] and in data set [2] were 96 min and 103 min, respectively.

By IC50 is commonly meant the concentration that inhibits the measured activity by half. The half-life is how long it takes for the measured level to halve.
